# Measured values published in PMC4265309 (Chemical biology & drug design, 2014).
# Legend:
# [1] = Peptide circular dichroism; type: physicochemical; settings: secondary structure by CD, 25 °C
# [2] = pH sensitivity of lytic activity; type: biochemical; settings: ratio calculated from the average IC50 values of a peptide at pH=7.4 and pH=5.5
# [3] = Peptide self-assembly and aggregation in solution; type: physicochemical
# [4] = system: CHO-K1 cells; experiment: Measurement of cell surface pH, CHO-K1; type: cell-based; settings: from pH=8.4 to pH=6.90, medium pH=7.4
# [5] = system: CHO-K1 cells; experiment: Peptide induced cell lysis; type: cell-based; settings: CHO-K1, normal cell culture conditions, no peptide (Figures 2 and 4)
# [6] = system: A549 and CCD-13Lu cells
Compound,Structure pH=6.5 [1],Structure pH=7.4 [1],pH sensitivity [2],other results
"Nc1ncnc2c1nc(Sc1ccc(Cl)cc1)n2[C@@H]1O[C@@H]2COP(=O)(O)O[C@H]2[C@H]1O [Peptide 8-CPT-cAMP, 8-CPT-cAMP]",,,,Time to reduction of cell surface pH [4]: ≤ 30 minutes; Effect on cell viability [5]: no effects on the viability
FLGALFKALSKLL [PTP-7],,,,Cytotoxicity to A549 relative to CCD-13Lu [6]: equally active to both cells
FLGALFRALSRLL [CL-1],Coil,Coil,1.2,
CO/C1=C\C(C)=C\[C@@H](C)[C@@H](O)[C@@H](C)C/C(C)=C/C=C/[C@H](OC)[C@@H]([C@@H](C)[C@@H](O)[C@H](C)[C@@]2(O)C[C@@H](O)[C@H](C)[C@@H](C(C)C)O2)OC1=O [Bafilomycin A1],,,,Effect on cell viability [5]: very limited effects on cell viability

# Now from value to compound, other results behind:
Structure pH=6.5 [1],Structure pH=7.4 [1],Compound,pH sensitivity [2],other results
Coil,α-helix,WLGALFHALSKLL [CL-9],3.0,
Coil,α-helix,FLGALFRALSHLL [CL-7],2.2,"Aggregation at physiological pH ([3]; 40 µM peptide, 1,8-ANS 20 µM, excitation 369 nm, SEM at pH=7.4): underwent self-assembly at physiological pH; Stability of peptide aggregates under acidic conditions ([3]; 1,8-ANS 20 µM, 40 µM peptide, particle analysis at 80 µM): unstable and dissolved under acidic conditions"
Coil,α-helix,WLGALFKALSHLLGHHPH [CL-22],13.8,
Coil,α-helix,WLGALFKALSHLL [CL-10],2.5,
